Measured values from ChEMBL document CHEMBL3045863, “The direct toxicity of BABA against grapevine ecosystem organisms” (2009).
Calls of active or inactive are those of the source. The calls are words filed in the database; no cut-off is given here.

Experiments:
Saccharomyces cerevisiae [1] = assay: Antifungal activity against Saccharomyces cerevisiae 58W3D4 assessed as reduction of doubling time at 0.001 to 100 mM; assay type: functional, organism-based
Saccharomyces cerevisiae [2] = assay: Antifungal activity against Saccharomyces cerevisiae BW15 assessed as reduction of doubling time at 0.001 to 100 mM; assay type: functional, organism-based
Saccharomyces cerevisiae [3] = assay: Antifungal activity against Saccharomyces cerevisiae FL100 ATCC 28383 assessed as reduction of doubling time at > 10 mM; assay type: functional, organism-based
Botrytis cinerea [4] = assay: Antifungal activity against Botryotinia fuckeliana T4 assessed as inhibition of spore germination after 5 days; assay type: functional, organism-based
Botrytis cinerea [5] = assay: Antifungal activity against Botryotinia fuckeliana T4 assessed as inhibition of mycelial growth 2.4 mM at pH 7 after 5 days; assay type: functional
Botrytis cinerea [6] = assay: Antifungal activity against Botryotinia fuckeliana T4 assessed as inhibition of mycelial growth after 5 days; assay type: functional, organism-based
Botrytis cinerea [7] = assay: Antifungal activity against Botryotinia fuckeliana T4 assessed as inhibition of mycelial growth 2.4 mM at pH 4 after 5 days; assay type: functional

## CC(N)CC(=O)O (racemic)
Saccharomyces cerevisiae [1]
  Activity: inactive
Saccharomyces cerevisiae [2]
  Activity: inactive
Saccharomyces cerevisiae [3]
  Activity: Active
Botrytis cinerea [4]
  inhibition: Dose-dependent effect
Botrytis cinerea [5]
  inhibition (INH): 40%
Botrytis cinerea [6]
  inhibition: Dose-dependent effect
Botrytis cinerea [7]
  inhibition (INH): 100%
